The subject of experiment [1] is homologous passive cutaneous anaphylaxis (PCA) reaction. Put plainly: Effect on homologous passive cutaneous anaphylaxis (PCA) reaction in rats. Type of experiment: in vivo, rats (Male wistar rats). The following applies: Rattus norvegicus, 0.5 h; 100 mg/kg oral, 1 hour before antigen, rats; Table 3. The method, then:
This experimental animal model is caused by immediate type allergic reaction, namely, antigen-antibody reaction. In the following, the method of this pharmacological test will be explained.
Method: Male wistar rats (9 weeks old) were intradermally administered 0.05 ml of anti-serum against trinitrophenylated ascaris (TNP-As) into two sites on the shaved dorsal skin. 48 hours later, 3-glycosyloxybenzopyran derivatives and 4-glycosyloxybenzopyran derivatives (test compounds) suspended in 0.5% sodium carboxymethylcellulose (CMCNa) were given orally at a dose of 100 mg/kg to the animals. 1 hour after administration of Test compounds, the animals were induced anaphylaxis by injection of saline (1 ml) dissolving 5 mg of Evans Blue and 1 mg of TNP-As into the tail vein of the animals. 30 minutes after induction of anaphylaxis, animals were anesthetized by ether and killed by bleeding, and were flayed dorsal skin. The leakage of dye was assessed by measuring the diameter (mean of shortest and longest diameter) of the blue spot on the inside surface of dorsal skin. As vehicle control group, only 0.5% CMCNa solution was administered orally, and as positive control group, Tranilast suspended in 0.5% CMCNa were administered orally at a dose of 100 mg/kg to the animals with the same method as the test compounds groups. Each experimental group consisted of 5 rats. [formula] In equation 1: A: leakage of dye in vehicle control group
B: leakage of dye in test compound group or in positive control group
The anti-allergic activity of the compounds of the present invention were compared with that of analogous compounds which were published in the Patent (EP-A-0598117) by PCA reaction. This pharmacological test was performed according to the method described in Test Example 1.

For experiment [2], the system named is contact dermatitis induced by picryl chloride. Briefly: Effect on contact dermatitis induced by picryl chloride in mice (delayed type hypersensitization). Type of experiment: in vivo. The note with it: Mus musculus; 100 mg/kg oral, ear thickness 24 hours after challenge; Table 6; read-out: Inhibition (%) against the increase of ear thickness. On the procedure: The delayed type hypersensitization is inhibited by steroid, but can not be effected by known anti-allergic agents. In the following, the method of the pharmacological test will be explained.
Method: Mice, shaved their abdominal skin on previous day, were immunized by applying 0.1 ml of acetone containing 7 mg of picryl chloride to the skin of the abdomen. 7 days after immunization, the thickness of the ear was measured with a dial thickness gauge, then mice were challenged by painting 5 μl of 1% picryl chloride olive oil solution to each side skin of left ear. 24 hours after challenge, the thickness of the left ear was measured again and the increase (%) of thickness was calculated according to equation 2. The compounds of the present invention (test compounds) suspended in 0.5% CMCNa were forcibly administered orally at a dose of 100 mg/kg at 1 hour before and 16 hours after challenge. As vehicle control group, only 0.5% CMCNa solution were administered orally, and as positive control group, Prednisolone, steroid hormone, and Tranilast were administered orally at the doses of 10 mg/kg and 100 mg/kg, respectively.
Increase (%)=(A-B)/B×100 (Equation 2)
A: thickness of the ear at 24 hours after challenge
B: thickness of the ear before challenge
Inhibition(%)=(C-D)/C×100 (equation 3)
C: The increase (%) in vehicle control group
D: The increase (%) in test compounds group or positive control group

Experiment [3] has as its system airway resistance in experimental asthma model. Briefly: Effect on experimental asthma model in guinea pigs. Type of experiment: in vivo, guinea pigs (Male hadley). The note with it: Cavia porcellus; 100 mg/kg oral, OVA challenge, guinea pigs; Table 7. The method, then: The asthma is typical allergic disease and we carried out this pharmacological test by well known experimental asthma model in guinea pigs in order to confirm that the compounds of the present invention suppress the asthma. In the following, the method of the pharmacological test will be explained.
Method: Male hadley guinea pigs were immunized by intraperitoneal injection of saline (1 ml) containing 5 mg of ovalbumine (OVA) three times at interval of one week. 2 weeks after final immunization, the animals were challenged by inhalation of 1% OVA-saline solution for 1 minute and then the airway resistance of the animals were measured for 30 minutes with PULMOS-1 (Medical Interface Project Station Inc.) after the inhalation. The compounds of the present invention (test compounds) suspended in 0.5% CMCNa were given orally at a dose of 100 mg/kg. As positive control group, Disodium Cromoglicate (DSCG), well known anti-allergic agent, in saline were injected at a dose of 20 mg/kg into the vein of the animals. As vehicle control group, only 0.5% CMCNa solution were given orally. The inhibition (%) of the airway resistance in vehicle control group was calculated according to equation 5 and the result was shown in Table 7. Each experimental group consisted of 5 guinea pigs. [formula] In equation 5: A: Maximum airway resistance in vehicle control group
B: Maximum airway resistance in test compounds group or positive control group

In the case of `CCCCCCOc1ccc2c(O)c(O[C@@H]3O[C@H](CO)[C@H](O)[C@H](O)[C@H]3O)c(=O)oc2c1` [compound 41], the inhibition in vivo at 100 mg/kg in experiment [1] was 60.8%; in experiment [2], 65.7%; in experiment [3], 77.7%.

As for `CC(=O)Oc1ccc2c(O)c(O[C@@H]3O[C@H](CO)[C@H](O)[C@H](O)[C@H]3O)c(=O)oc2c1` [compound 42], the inhibition in vivo at 100 mg/kg in experiment [1] was 52.7%; in experiment [2], 52.1%; in experiment [3], 62.6%.

For `CCCCCCOc1ccc2c(O)c(O[C@@H]3O[C@H](CO)[C@@H](O)[C@H](O)[C@H]3O)c(=O)oc2c1` [compound 43], the figures for the inhibition in vivo at 100 mg/kg in experiment [1], in experiment [2] and in experiment [3] were 63.2%, 63.4% and 76.3%, respectively.

On to `CCCCCCOc1ccc2c(O)c(O[C@H]3O[C@H](CO)[C@@H](O)[C@H](O)[C@@H]3O)c(=O)oc2c1` [compound 44], for which the inhibition in vivo at 100 mg/kg was 53.5% in experiment [1], 58.2% in experiment [2] and 71.2% in experiment [3].

With `CC(=O)Oc1ccc2c(O)c(O[C@H]3O[C@H](CO)[C@@H](O)[C@H](O)[C@@H]3O)c(=O)oc2c1` [compound 45], the inhibition in vivo at 100 mg/kg in experiment [1] is 46.3%; in experiment [2] it was 46.3%; in experiment [3] it was 46.5%.

Take `O=c1oc2cc(O)ccc2c(O[C@@H]2O[C@H](CO)[C@@H](O)[C@H](O)[C@H]2O)c1O` [compound 59, 3,7-dihydroxy-4-(β-D-glucopyranosyloxy)-2H-1-benzopyran-2-one]: the inhibition in vivo at 100 mg/kg was 46.1% in experiment [1], 45.6% in experiment [2] and 49.1% in experiment [3].

Regarding `COc1ccc2c(O[C@@H]3O[C@H](CO)[C@@H](O)[C@H](O)[C@H]3O)c(O)c(=O)oc2c1` [compound 61, 7-methoxy-3-hydroxy-4-(β-D-glucopyranosyloxy)-2H-1-benzopyran-2-one], the values for the inhibition in vivo at 100 mg/kg in experiment [1], in experiment [2] and in experiment [3] were 49.2%, 50.7% and 53.3%, respectively.

Take `CCCCOc1ccc2c(O[C@@H]3O[C@H](CO)[C@@H](O)[C@H](O)[C@H]3O)c(O)c(=O)oc2c1` [compound 63, 7-butoxy-3-hydroxy-4-(β-D-glucopyranosyloxy)-2H-1-benzopyran-2-one]: the inhibition in vivo at 100 mg/kg stood at 57.4% in experiment [1], 57.1% in experiment [2] and 64.7% in experiment [3].

As for `COc1ccc2c(O[C@@H]3O[C@H](CO)[C@@H](O)[C@H](O)[C@H]3O)c(OC(C)=O)c(=O)oc2c1` [compound 65, 7-methoxy-3-acetoxy-4-(β-D-glucopyranosyloxy)-2H-1-benzopyran-2-one], the inhibition in vivo at 100 mg/kg in experiment [1] worked out at 45.6%; in experiment [2], 46.3%; in experiment [3], 46.9%.

On to `CCCCCCCCOc1ccc2c(O[C@@H]3O[C@H](CO)[C@@H](O)[C@H](O)[C@H]3O)c(O)c(=O)oc2c1` [compound 66], for which the inhibition in vivo at 100 mg/kg amounted to 63.8% in experiment [1], 62.5% in experiment [2] and 74.1% in experiment [3].

For the compound `CCCCCCCCCCOc1ccc2c(O[C@@H]3O[C@H](CO)[C@@H](O)[C@H](O)[C@H]3O)c(O)c(=O)oc2c1` [compound 67], the inhibition in vivo at 100 mg/kg in experiment [1] was 60.4%; in experiment [2], 63.8%; in experiment [3] it was 70.6%.

As for `CCCCCCCCCCCCOc1ccc2c(O[C@@H]3O[C@H](CO)[C@@H](O)[C@H](O)[C@H]3O)c(O)c(=O)oc2c1` [compound 68], the inhibition in vivo at 100 mg/kg turned out to be 59.9% in experiment [1], 56.6% in experiment [2] and 65.3% in experiment [3].

Turning to `CC(C)Oc1ccc2c(O[C@@H]3O[C@H](CO)[C@@H](O)[C@H](O)[C@H]3O)c(O)c(=O)oc2c1` [compound 69], the results for the inhibition in vivo at 100 mg/kg in experiment [1], in experiment [2] and in experiment [3] were 57.2%, 56.4% and 68.3%, respectively.

`CCC=CCCOc1ccc2c(O[C@@H]3O[C@H](CO)[C@@H](O)[C@H](O)[C@H]3O)c(O)c(=O)oc2c1` [compound 70]: the inhibition in vivo at 100 mg/kg in experiment [1] was 58.5%; in experiment [2], 57.6%; in experiment [3], 67.7%.

On to `CC(C)=CCC/C(C)=C/COc1ccc2c(O[C@@H]3O[C@H](CO)[C@@H](O)[C@H](O)[C@H]3O)c(O)c(=O)oc2c1` [compound 71], for which the results for the inhibition in vivo at 100 mg/kg in experiment [1], in experiment [2] and in experiment [3] were 57.4%, 57.1% and 65.2%, respectively.

Consider `O=C(Oc1ccc2c(O[C@@H]3O[C@H](CO)[C@@H](O)[C@H](O)[C@H]3O)c(O)c(=O)oc2c1)c1ccccc1` [compound 72], for which the inhibition in vivo at 100 mg/kg was determined as 46.9% in experiment [1], 47.8% in experiment [2] and 49.5% in experiment [3].

In the case of `COc1ccc2c(O[C@@H]3O[C@H](CO)[C@@H](O)[C@H](O)[C@H]3O)c(OC(=O)c3ccccc3)c(=O)oc2c1` [compound 73], the inhibition in vivo at 100 mg/kg in experiment [1] amounted to 45.8%; in experiment [2], 45.8%; in experiment [3], 44.7%.

Regarding `CCCCOc1ccc2c(O[C@@H]3O[C@H](CO)[C@@H](O)[C@H](O)[C@H]3O)c(OC(C)=O)c(=O)oc2c1` [compound 74], the inhibition in vivo at 100 mg/kg in experiment [1] stood at 46.8%; in experiment [2], 47%; in experiment [3], 55.4%.

Regarding `CCCCCCCCCCCCOc1ccc2c(O[C@@H]3O[C@H](CO)[C@@H](O)[C@H](O)[C@H]3O)c(OC(C)=O)c(=O)oc2c1` [compound 75], the inhibition in vivo at 100 mg/kg in experiment [1] is 43.3%; in experiment [2], 46.2%; in experiment [3] it was 45.2%.

`O=c1oc2cc(OCc3ccccc3)ccc2c(O[C@@H]2O[C@H](CO)[C@@H](O)[C@H](O)[C@H]2O)c1O` [compound 76]: the inhibition in vivo at 100 mg/kg amounted to 47.7% in experiment [1], 46.8% in experiment [2] and 47.5% in experiment [3].

Consider `O=c1oc2cc(O)ccc2c(O[C@H]2O[C@H](CO)[C@@H](O)[C@H](O)[C@@H]2O)c1O` [compound 77], for which the inhibition in vivo at 100 mg/kg was 42.7% in experiment [1], 39.6% in experiment [2] and 37.3% in experiment [3].

As to `COc1ccc2c(O[C@H]3O[C@H](CO)[C@@H](O)[C@H](O)[C@@H]3O)c(O)c(=O)oc2c1` [compound 78], the inhibition in vivo at 100 mg/kg in experiment [1] worked out at 46.2%; in experiment [2], 43.1%; in experiment [3] it was 50.8%.

On to `CCCCOc1ccc2c(O[C@H]3O[C@H](CO)[C@@H](O)[C@H](O)[C@@H]3O)c(O)c(=O)oc2c1` [compound 79], for which the results for the inhibition in vivo at 100 mg/kg in experiment [1], in experiment [2] and in experiment [3] were 47.1%, 46.3% and 50.3%, respectively.

For `CCCCCCCCOc1ccc2c(O[C@H]3O[C@H](CO)[C@@H](O)[C@H](O)[C@@H]3O)c(O)c(=O)oc2c1` [compound 80], the inhibition in vivo at 100 mg/kg is 50.5% in experiment [1], 50.3% in experiment [2] and 63.3% in experiment [3].

For the origin of these results see patent publication US5525595A, “3- or 4-glycosyloxybenzopyran derivative and antiallergic agent containing the derivative as active ingredient” (priority 1993, dated 1996).
